Experiments:
Assay type in all cases: in vivo, humans
[1] = test system: respiratory illness, COVID-19; test: Symptoms and recovery monitoring in individuals with COVID-19 administered R-beta-hydroxybutyrate; conditions: composition comprising 10 g twice a day
Protocol: (§1) A composition comprising 10 g of R-beta-hydroxybutyrate was administered to individuals twice a day. […] The patients were tested and monitored to determine the impact of administration of beta-hydroxybutyrate on the illness progression and recovery. Administration of the beta-hydroxybutyrate reduced the number of symptoms and the severity of symptoms. […] Since quicker returns to normal values may indicate less chances for long-term continuance of viral respiratory illnesses (e.g., long-haul or long-term Covid-19), administration of beta-hydroxybutyrate may be associated with decreased potential for long-term continuance of symptoms.

[2] = test system: respiratory illness, COVID-19; test: Cough severity by Cough Severity Visual Analogue Scale over 4 days; conditions: 10 g, orally, vs not administered, FIG. 1
Protocol: as §1
FIG. 1 graphically illustrates cough measured over 4 days for individuals administrated 10 g of R-beta-hydroxybutyrate and not administered 10 g of R-beta-hydroxybutyrate. Cough severity was measured using the Cough Severity Visual Analogue Scale. As illustrated, cough severity was lower with administration of 10 g of R-beta-hydroxybutyrate. Furthermore, cough severity was not as high when beta-hydroxybutyrate was orally administered.

[3] = test system: respiratory illness, COVID-19; test: Lung function (FEV) measurements over 4 days; conditions: FIG. 2
Protocol: as §1
FIG. 2 graphically illustrates lung function measurements over 4 days for individuals administered 10 g of R-beta-hydroxybutyrate and not administered 10 g of R-beta-hydroxybutyrate. […] As illustrated, improvement in FEV plateaued when beta-hydroxybutyrate was not administered while it continued to improve when R-beta-hydroxybutyrate was administered. Reduction in the chances of plateauing lung function (e.g., at reduced levels) may decrease potential for long-term continuance of symptoms such as those found in long term or long-haul COVID-19 sufferers (e.g., individuals who had COVID-19 and continue to present with symptoms 4 or more weeks after infection).

[4] = test system: respiratory illness, COVID-19; test: Cardiovascular endurance, standard 15 minute cycling test over 4 days; conditions: 10 g vs not administered, FIG. 3
Protocol: as §1
FIG. 3 graphically illustrates endurance capacity monitoring in individuals over 4 days for individuals administered 10 g of R-beta-hydroxybutyrate and not administered 10 g of R-beta-hydroxybutyrate. Cardiovascular endurance was measured using a standard 15 minute cycling test and is illustrated in FIG. 3 as a percentage of normal.

## C[C@@H](O)CC(=O)O [R-beta-hydroxybutyrate, (R)-3-Hydroxybutyric acid]
[1]
  number of symptoms: reduced
  recovery time: decreased
  severity of symptoms: reduced
[2]
  cough severity (Cough Severity Visual Analogue Scale): lower
[3]; 10 g vs not administered (FEV plateaued without)
  time for lung function to improve to normal: improve to normal more quickly
[3]; 10 g vs not administered
  FEV (as a % of normal FEV): higher overall
[4]
  cardiovascular endurance as a percentage of normal: overall better
  recovery to normal cardiovascular endurance: quicker recovery to normal
